Assay results reported in patent US20120245357A1, “ALR2 INHIBITORS AND THEIR SYNTHESIS FROM A NATURAL SOURCE” (COUNCIL OF SCIENTIFIC & INDUSTRIAL RESEARCH, priority 2010, published 2012).
Where two headings read alike, the source gives them in different places.

Experiments:
human recombinant ALR2 = molecular target: T1, human recombinant ALR2 (Homo sapiens, UniProt P15121); test: ALR2 inhibition and determination of IC50 values (NADPH oxidation at 340 nm); assay type: biochemical
T1 construct: made in house; host or cells: E. coli JM101
Experimental: Transformed cells were selected on LB-medium containing 50 μg/ml spectinomycin and were grown overnight at 37° C. in LB broth containing M9 medium supplemented with 1% casamino acids, […] thiamine, and 0.05% trace metals. Culture was induced by isopropyl thiogalactoside (IPTG) at the final concentration of 1 mM and grown for additional 2 hours. Cells were harvested by spinning at 2000 g for 5 min at 4° C. and subjected to osmotic fractionation by suspending them in 20% sucrose, 30 mM Tris pH 7.5, 1 mM EDTA, and then cells were incubated at 23° C. for 15 min. After incubation, cells were recovered by centrifugation for 15 min at 2000 g at 4° C. Supernatant (sucrose wash) was reserved and pellet was resuspended in 1 ml of ice cold deionized water and incubated for 10 min on ice. Again cells were recovered by centrifugation at 12000 g for 5 min at 4° C. Supernatant (water wash) was reserved and pellet was resuspended in 1 ml of ice cold deionized water. Osmotic shock extract was further subjected to purification.
Osmotic shock extract was subjected to 50-80% ammonium sulphate fractionation followed by centrifugation at 10,000 g for 20 min. The pellet obtained was resuspended in 100-200 ml of 25 mM imidazole-HCl, pH 7.4. Crude lysate was applied to chromatography column packed with PBE 94 chromatofocussing resin, which had been previously equilibrated with 25 mM imidazole. Proteins were eluted from the column with 1:8 diluted polybuffer pH 7.4. Column eluant was continuously monitored by measuring absorbance at 280 nm. Fractions containing ALR2 activity were pooled and dialyzed against 10 mM potassium phosphate buffer containing 0.5 mM EDTA. Dialyzed samples were then applied to 30×2.5 cm at hydroxylapatite column equilibrated with 10 mM potassium phosphate buffer pH 7.4 containing 0.5 mM EDTA at a flow rate of 60 ml/h. The enzyme was eluted with a linear gradient 10-300 mM potassium phosphate buffer, pH 7.0. Fractions from each purification step are subjected to SDS-PAGE. Fractions containing ALR2 activity were pooled, concentrated and stored at −20° C. until further inhibition studies.
The assay mixture in 1 ml contained 50 mM potassium phosphate buffer, pH 6.2, 0.2 mM lithium sulfate, 5 mM 2-mercaptoethanol, 1 mM DL-glyceraldehyde, 0.1 mM NADPH and recombinant ALR2. Appropriate blanks were employed for corrections. The assay mixture was incubated at 37° C. and initiated by the addition of NADPH at 37° C. The change in the absorbance at 340 nm due to NADPH oxidation was monitored in a Lamda35 spectrophotometer (Perkin-Elmer, Shelton, USA).
For inhibition studies concentrated stocks of compounds prepared in dimethyl sulfoxide were used and the final concentration of DMSO was not more than 1% of the assay volume. Various concentrations of the above mentioned analogues were added to assay mixture of ALR2 and incubated for 5 min before initiating the reaction by NADPH as described above. The percentage inhibition was calculated considering the activity in the absence of compound as 100%. The IC50 values were determined by nonlinear regression analysis of the plot of percent inhibition versus log compound concentration.

human RBC = test: Inhibition of sorbitol formation in RBC under high glucose conditions (ex vivo); assay type: cell-based; conditions: human RBC incubated under high glucose condition (55 mM), 3 hrs
Experimental: In vitro incubation of RBC: Five mL blood was collected from healthy male volunteers on overnight fasting in heparinized tubes. Red blood cells were separated by centrifugation (3000 rpm/min about 30 min) and washed three times with isotonic saline at 4° C. Washed RBC were suspended in Kreb's-ringer bicarbonate buffer, pH 7.4 (pre-equilibrated with 5% CO2) and incubated at 37° C. in presence of 5% CO2 for 3 hrs under normal (5.5 mM) and high glucose (55 mM) conditions in duplicates. The effect of compounds on sorbitol accumulation was evaluated by incubating the RBC with different concentrations of compounds.
Estimation of sorbitol in RBC: At the end of incubation period, RBC was homogenized in 9 volumes of 0.8 M perchloric acid. The homogenate was centrifuged at 5,000 g at 4° C. for 10 min and the pH of the supernatant was adjusted to 3.5 with 0.5 M potassium carbonate. The sorbitol content of the supernatant was measured by fluorometric method using a spectrofluorometer (Jasco-FP-6500).

[1] = human recombinant ALR2, read-out: IC50 value, ALR2 inhibition
[2] = recombinant human ALR2 in vitro, average of four experimental values, read-out: IC-50

Question: With `COc1cc(C(CC(=O)O)c2c(C)[nH]c3ccccc23)cc(OC)c1OC` (stereo not shown) [compound 4, 3-(3,4,5-trimethoxyphenyl)-3-(2-methyl-1H-indol-3-yl)propanoic acid] as the compound, how does the “ALR2 inhibitory activity (in words)” value (human recombinant ALR2) read?
Answer: inactive

Question: How did the “ALR2 inhibitory activity (in words)” value (human recombinant ALR2) turn out when `COC(=O)/C=C/c1cc(OC)c(OC)c(OC)c1` [compound 5, (E)-methyl 3-(3,4,5-trimethoxyphenyl)acrylate] was run?
Answer: inactive

Question: What does the source list for `COc1ccc2[nH]cc(C(CC(=O)N3CCC=CC3=O)c3cc(OC)c(OC)c(OC)c3)c2c1` (stereo not shown) [2j, 1-(3-(5-methoxy-1H-indol-3-yl)-3-(3,4,5-trimethoxyphenyl)propanoyl)-5,6-dihydropyridin-2(M)-one]?
Answer: % inhibition of sorbitol formation (human RBC): 64.9%; IC50 (human recombinant ALR2; [1]): 8 µM

Question: Which “% inhibition of sorbitol formation” value (human RBC) does the source give for `COc1cc(C(CC(=O)N2CCC(c3c(-c4ccccc4)[nH]c4ccccc34)CC2=O)c2c(-c3ccccc3)[nH]c3ccccc23)cc(OC)c1OC` (stereo not shown) [3e, 1-(3-(3,4,5-trimethoxyphenyl)-3-(2-phenyl-1H-indol-3-yl)propanoyl)-4-(2-phenyl-1H-indol-3-yl)piperidin-2-one] here?
Answer: 68%

Question: What about the IC50 (human recombinant ALR2; [2]) of the same compound?
Answer: 4 µM

Question: How did the IC50 (human recombinant ALR2; SAR studies text, read-out: IC50, in-vitro aldose reductase inhibition) turn out when `COc1cc(C(CC(=O)N2CCC=CC2=O)c2c[nH]c3ccc(Br)cc23)cc(OC)c1OC` (racemic) [2g, 1-(3-(5-bromo-1H-indol-3-yl)-3-(3,4,5-trimethoxyphenyl)propanoyl)-5,6-dihydropyridin-2(1H)-one] was run?
Answer: 60 µM

Question: What about the IC50 (human recombinant ALR2; [1]) of the same compound?
Answer: 15 µM

Question: For `COc1cc(C(CC(=O)N2CCC(c3cn(Cc4ccccc4)c4ccccc34)CC2=O)c2cn(Cc3ccccc3)c3ccccc23)cc(OC)c1OC` (stereo not shown) [3c, 1-(3-(1-benzyl-1H-indol-3-yl)-3-(3,4,5-trimethoxyphenyl)propanoyl)-4-(1-benzyl-1H-indol-3-yl)piperidin-2-one], which “% inhibition of sorbitol formation” value (human RBC) is on record?
Answer: 58.5%

Question: And the IC50 (human recombinant ALR2; [1])?
Answer: 4 µM

Question: Which IC50 (human recombinant ALR2; [1]) does the source give for `COc1cc(/C=C/C(=O)N2CCC=CC2=O)cc(OC)c1OC` [Piplartine, 5,6-dihydro-1-((E)-3-(3,4,5-trimethoxyphenyl)acryloyl)pyridin-2(1H)-one] here?
Answer: 160 µM

Question: How did the IC50 (human recombinant ALR2; [1]) turn out when pipernal was run?
Answer: 310 µM

Question: Which IC50 (human recombinant ALR2; [2]) does the source give for `COc1cc(C(CC(=O)N2CCC(c3c(C)[nH]c4ccccc34)CC2=O)c2c(C)[nH]c3ccccc23)cc(OC)c1OC` (stereo not shown) [3d, 1-(3-(3,4,5-trimethoxyphenyl)-3-(2-methyl-1H-indol-3-yl)propanoyl)-4-(2-methyl-1H-indol-3-yl)piperidin-2-one] here?
Answer: 40 µM
